This passage reports AC50 results from ChEMBL document CHEMBL5291721, “A preclinical secondary pharmacology resource illuminates target-adverse drug reaction associations of marketed drugs” (Nat Commun, 2023).

Assay [1] deals with T1, 5-hydroxytryptamine receptor 1A (Homo sapiens, UniProt P08908).
T1 sequence (P08908 whole entry): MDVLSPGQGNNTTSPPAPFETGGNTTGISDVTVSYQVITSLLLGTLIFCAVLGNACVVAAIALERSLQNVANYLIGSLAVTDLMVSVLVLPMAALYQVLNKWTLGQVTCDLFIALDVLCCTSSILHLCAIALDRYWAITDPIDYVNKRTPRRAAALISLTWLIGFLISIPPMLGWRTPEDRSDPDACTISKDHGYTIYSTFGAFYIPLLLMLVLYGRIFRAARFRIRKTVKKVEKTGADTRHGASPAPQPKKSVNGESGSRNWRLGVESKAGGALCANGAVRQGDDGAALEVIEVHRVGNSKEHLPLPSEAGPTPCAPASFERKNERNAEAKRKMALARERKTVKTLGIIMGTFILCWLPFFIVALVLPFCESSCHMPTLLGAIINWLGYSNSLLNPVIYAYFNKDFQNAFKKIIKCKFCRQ

Assay [2] has as its target T2, Corticotropin-releasing factor receptor 1 (Homo sapiens, UniProt P34998).
T2 sequence (P34998 whole entry): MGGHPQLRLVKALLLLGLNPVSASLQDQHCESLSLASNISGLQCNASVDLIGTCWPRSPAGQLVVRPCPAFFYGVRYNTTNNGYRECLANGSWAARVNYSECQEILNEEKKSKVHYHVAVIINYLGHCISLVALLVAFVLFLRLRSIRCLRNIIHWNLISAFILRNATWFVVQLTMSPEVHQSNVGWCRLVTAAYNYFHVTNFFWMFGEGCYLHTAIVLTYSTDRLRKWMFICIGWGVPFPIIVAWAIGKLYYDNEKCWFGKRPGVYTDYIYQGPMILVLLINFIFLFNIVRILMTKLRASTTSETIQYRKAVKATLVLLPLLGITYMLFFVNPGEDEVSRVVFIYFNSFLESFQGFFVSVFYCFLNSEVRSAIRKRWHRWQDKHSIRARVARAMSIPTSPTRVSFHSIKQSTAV

Assay [3] concerns the target T3, Corticotropin-releasing factor receptor 2 (Homo sapiens, UniProt Q13324).
T3 sequence (Q13324 whole entry): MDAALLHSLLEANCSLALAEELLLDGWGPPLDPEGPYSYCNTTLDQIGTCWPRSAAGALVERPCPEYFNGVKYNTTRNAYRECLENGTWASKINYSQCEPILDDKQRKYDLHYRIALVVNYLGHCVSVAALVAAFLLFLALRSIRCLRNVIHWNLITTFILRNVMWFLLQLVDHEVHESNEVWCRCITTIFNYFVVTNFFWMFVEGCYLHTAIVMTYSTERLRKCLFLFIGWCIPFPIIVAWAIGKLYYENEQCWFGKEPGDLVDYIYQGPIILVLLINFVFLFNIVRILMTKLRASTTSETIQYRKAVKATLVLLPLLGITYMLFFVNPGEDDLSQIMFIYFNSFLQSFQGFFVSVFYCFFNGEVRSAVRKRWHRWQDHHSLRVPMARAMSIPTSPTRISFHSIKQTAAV

The next assay addresses T4, Progesterone receptor (Homo sapiens, UniProt P06401).
T4 sequence (P06401 whole entry): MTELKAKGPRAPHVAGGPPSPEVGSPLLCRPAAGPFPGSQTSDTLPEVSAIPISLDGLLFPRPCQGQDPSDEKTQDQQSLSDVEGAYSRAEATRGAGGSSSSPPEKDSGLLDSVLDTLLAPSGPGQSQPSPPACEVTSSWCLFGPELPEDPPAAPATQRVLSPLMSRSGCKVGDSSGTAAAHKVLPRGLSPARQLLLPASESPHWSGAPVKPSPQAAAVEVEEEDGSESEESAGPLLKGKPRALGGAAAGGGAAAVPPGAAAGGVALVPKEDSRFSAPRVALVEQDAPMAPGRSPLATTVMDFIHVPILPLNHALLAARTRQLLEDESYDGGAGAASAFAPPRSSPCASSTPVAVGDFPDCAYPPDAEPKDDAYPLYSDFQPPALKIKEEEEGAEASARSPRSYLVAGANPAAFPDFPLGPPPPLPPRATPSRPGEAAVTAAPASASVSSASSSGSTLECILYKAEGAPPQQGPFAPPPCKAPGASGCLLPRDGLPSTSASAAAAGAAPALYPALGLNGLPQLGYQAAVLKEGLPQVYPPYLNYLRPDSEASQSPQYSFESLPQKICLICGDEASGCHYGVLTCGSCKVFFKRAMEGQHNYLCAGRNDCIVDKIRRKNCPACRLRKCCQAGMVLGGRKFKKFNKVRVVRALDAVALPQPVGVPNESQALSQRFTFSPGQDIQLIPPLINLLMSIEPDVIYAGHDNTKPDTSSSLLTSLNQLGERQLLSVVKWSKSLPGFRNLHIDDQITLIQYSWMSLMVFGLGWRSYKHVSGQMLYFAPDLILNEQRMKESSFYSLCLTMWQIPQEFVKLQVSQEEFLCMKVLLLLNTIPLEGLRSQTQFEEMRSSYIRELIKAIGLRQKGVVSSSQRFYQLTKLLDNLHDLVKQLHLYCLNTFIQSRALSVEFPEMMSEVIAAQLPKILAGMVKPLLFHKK

Another assay has as its target Glucagon receptor (Homo sapiens, UniProt P47871).
In the next assay the target is T5, B1 bradykinin receptor (Homo sapiens, UniProt P46663).
T5 sequence (P46663 whole entry): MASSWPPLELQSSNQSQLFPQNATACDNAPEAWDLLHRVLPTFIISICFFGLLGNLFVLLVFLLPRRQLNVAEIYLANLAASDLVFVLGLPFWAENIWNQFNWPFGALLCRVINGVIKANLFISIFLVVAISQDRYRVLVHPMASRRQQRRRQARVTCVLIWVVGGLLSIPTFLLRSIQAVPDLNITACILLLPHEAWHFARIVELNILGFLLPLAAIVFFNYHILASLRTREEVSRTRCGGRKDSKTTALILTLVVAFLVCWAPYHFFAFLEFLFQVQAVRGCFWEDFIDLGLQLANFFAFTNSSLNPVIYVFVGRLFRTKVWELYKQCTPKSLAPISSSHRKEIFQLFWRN
Note: assay procedure not described here.

Sequence of Glucagon receptor (P47871 whole entry): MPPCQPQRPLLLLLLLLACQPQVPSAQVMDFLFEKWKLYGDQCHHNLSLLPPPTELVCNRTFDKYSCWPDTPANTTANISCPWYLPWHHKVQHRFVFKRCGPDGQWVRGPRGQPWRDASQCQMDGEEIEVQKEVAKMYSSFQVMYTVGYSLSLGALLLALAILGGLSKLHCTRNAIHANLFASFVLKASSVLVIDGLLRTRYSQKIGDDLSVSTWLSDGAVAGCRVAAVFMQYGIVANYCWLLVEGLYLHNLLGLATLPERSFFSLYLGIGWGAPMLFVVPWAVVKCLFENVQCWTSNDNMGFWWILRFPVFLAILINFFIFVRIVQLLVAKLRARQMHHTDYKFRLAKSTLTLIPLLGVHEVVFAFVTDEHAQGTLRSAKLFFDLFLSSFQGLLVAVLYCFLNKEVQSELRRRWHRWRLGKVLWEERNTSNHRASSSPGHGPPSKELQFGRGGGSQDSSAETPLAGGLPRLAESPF

For orientation: AC50 means the concentration at which the activity in the assay is half-maximal. Higher therefore signals weaker potency. Turning to `CN1CCN(C2=Nc3ccccc3Oc3ccc(Cl)cc32)CC1` [LOXAPINE], the AC50 in assay [1] is 33.1 µM; in assay [2], more than 30 µM; in assay [3] it was more than 30 µM; on Progesterone receptor, more than 30 µM; on Glucagon receptor it was more than 30 µM; at B1 bradykinin receptor it was more than 30 µM.
`CC12CC3CC(C)(C1)CC(N)(C3)C2` [MEMANTINE]: the AC50 in assay [1] was more than 10 µM; in assay [2] it was more than 30 µM; in assay [3], more than 30 µM; on Progesterone receptor, more than 30 µM; on Glucagon receptor, more than 30 µM; at B1 bradykinin receptor, more than 30 µM.
Turning to `CN1CCC(=C2c3ccccc3CCc3cccnc32)CC1` [AZATADINE], the AC50 in assay [1] is 5.69 µM; at Progesterone receptor it was more than 30 µM.
As to `CCOC(=O)C1=C(C)NC(C)=C(C(=O)OC)C1c1cccc([N+](=O)[O-])c1` (stereo not given) [NITRENDIPINE], the AC50 in assay [1] is more than 10 µM; in assay [2], more than 30 µM; in assay [3], more than 30 µM; at Progesterone receptor, more than 30 µM; on Glucagon receptor, more than 30 µM; on B1 bradykinin receptor, more than 30 µM.
Take `[H]/N=C(/N)N/C(=N/[H])NCCc1ccccc1` [PHENFORMIN]: the AC50 in assay [1] is more than 10 µM; in assay [2], more than 30 µM; in assay [3], more than 30 µM; at Progesterone receptor it was more than 30 µM; at Glucagon receptor it was more than 30 µM; at B1 bradykinin receptor it was more than 30 µM.
Take `CCCCC(=O)O[C@]1(C(=O)CO)[C@@H](C)C[C@H]2[C@@H]3CCC4=CC(=O)C=C[C@]4(C)[C@@]3(F)[C@@H](O)C[C@@]21C` [BETAMETHASONE VALERATE]: the AC50 in assay [1] was more than 10 µM; at Progesterone receptor, 0.13 µM.
Regarding `O=C(O)c1cn(C2CC2)c2cc(N3CCNCC3)c(F)cc2c1=O` [CIPROFLOXACIN], the AC50 (in assay [2]; in assay [3]; on Progesterone receptor; at Glucagon receptor; on B1 bradykinin receptor) was more than 30 µM throughout.
As for `CCCN[C@H]1CCc2nc(N)sc2C1` [PRAMIPEXOLE], in assay [1], half-maximal activity (AC50) was put at 10.5 µM.
For `CCC[C@H](NC(=O)[C@@H]1[C@H]2CCC[C@H]2CN1C(=O)[C@@H](NC(=O)[C@@H](NC(=O)c1cnccn1)C1CCCCC1)C(C)(C)C)C(=O)C(=O)NC1CC1`, the AC50 is more than 10 µM in assay [1] and more than 30 µM at Progesterone receptor.
For `CC(N)C(O)c1ccccc1` (stereo not given) [PHENYLPROPANOLAMINE], the AC50 in assay [1] is more than 10 µM; in assay [2] it was more than 30 µM; in assay [3], more than 30 µM; on Progesterone receptor, more than 30 µM; at Glucagon receptor, more than 30 µM; on B1 bradykinin receptor, more than 30 µM.
Regarding `CC(C)NCC(O)c1ccc(O)c(O)c1` (stereo not given) [ISOPROTERENOL], the AC50 is more than 10 µM in assay [1]; more than 30 µM in assay [2]; more than 30 µM in assay [3]; more than 30 µM at Progesterone receptor; more than 30 µM at Glucagon receptor; more than 30 µM on B1 bradykinin receptor.
Turning to `OC1(c2ccc(Cl)cc2)c2ccccc2C2=NCCN21` (stereo not given) [MAZINDOL], the AC50 in assay [1] is more than 10 µM; in assay [2], more than 30 µM; in assay [3], more than 30 µM; at Progesterone receptor, more than 30 µM; at Glucagon receptor, more than 30 µM; at B1 bradykinin receptor, more than 30 µM.
Turning to `CCCC(CCC)C(N)=O` [VALPROMIDE], the half-maximal activity concentration (AC50) in assay [1] is more than 10 µM; at Progesterone receptor it was more than 30 µM.
For `CNC1=Nc2ccc(Cl)cc2C(c2ccccc2)=[N+]([O-])C1` [CHLORDIAZEPOXIDE], the results for the concentration at half-maximal activity (AC50) (in assay [1]; at Progesterone receptor) were more than 10 µM and more than 30 µM, respectively.
For the molecule `CCC(=O)O[C@]1(C(=O)SCF)[C@H](C)C[C@H]2[C@@H]3C[C@H](F)C4=CC(=O)C=C[C@]4(C)[C@@]3(F)[C@@H](O)C[C@@]21C` [FLUTICASONE PROPIONATE], the AC50 in assay [1] is more than 10 µM; in assay [2], more than 30 µM; in assay [3], more than 30 µM; on Glucagon receptor, more than 30 µM; on B1 bradykinin receptor, more than 30 µM.
For `Cc1cnc(C(=O)NCCc2ccc(S(=O)(=O)NC(=O)NC3CCCCC3)cc2)cn1` [GLIPIZIDE], the AC50 in assay [1] is more than 10 µM; in assay [2] it was more than 30 µM; in assay [3] it was more than 30 µM; on Progesterone receptor, more than 30 µM; at Glucagon receptor, more than 30 µM; at B1 bradykinin receptor, more than 30 µM.
As to `CC(CCc1ccc(O)cc1)NCCc1ccc(O)c(O)c1` (stereo not given) [DOBUTAMINE], the AC50 in assay [1] is more than 10 µM; in assay [2], more than 30 µM; in assay [3], more than 30 µM; at Progesterone receptor it was more than 30 µM; on Glucagon receptor, more than 30 µM; at B1 bradykinin receptor, more than 30 µM.
Regarding `CC(C)COCC(CN(Cc1ccccc1)c1ccccc1)N1CCCC1` (stereo not given) [BEPRIDIL], the AC50 (in assay [2]; in assay [3]; at Progesterone receptor; at Glucagon receptor; on B1 bradykinin receptor) was more than 30 µM throughout.
